Data published in ChEMBL document CHEMBL1201862, “PubChem BioAssay data set” (2004).
Blank lines part the entries; values can stand above or below the compound they belong to. Calls of active or inactive are those of the source.

What was measured:
[1] = target: T1, Fatty acid synthase (Homo sapiens, UniProt P49327); test: FAS thioesterase domain inhibitors, dose response, biochemical, endpoint fluorescence intensity, uHTS hits (AID 624327); type: functional;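 note: fluorescence from hydrolysis of an O-methyl fluorescein acyl ester substrate by the enzyme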
T1 sequence (P49327 whole entry, the tested form may be a part): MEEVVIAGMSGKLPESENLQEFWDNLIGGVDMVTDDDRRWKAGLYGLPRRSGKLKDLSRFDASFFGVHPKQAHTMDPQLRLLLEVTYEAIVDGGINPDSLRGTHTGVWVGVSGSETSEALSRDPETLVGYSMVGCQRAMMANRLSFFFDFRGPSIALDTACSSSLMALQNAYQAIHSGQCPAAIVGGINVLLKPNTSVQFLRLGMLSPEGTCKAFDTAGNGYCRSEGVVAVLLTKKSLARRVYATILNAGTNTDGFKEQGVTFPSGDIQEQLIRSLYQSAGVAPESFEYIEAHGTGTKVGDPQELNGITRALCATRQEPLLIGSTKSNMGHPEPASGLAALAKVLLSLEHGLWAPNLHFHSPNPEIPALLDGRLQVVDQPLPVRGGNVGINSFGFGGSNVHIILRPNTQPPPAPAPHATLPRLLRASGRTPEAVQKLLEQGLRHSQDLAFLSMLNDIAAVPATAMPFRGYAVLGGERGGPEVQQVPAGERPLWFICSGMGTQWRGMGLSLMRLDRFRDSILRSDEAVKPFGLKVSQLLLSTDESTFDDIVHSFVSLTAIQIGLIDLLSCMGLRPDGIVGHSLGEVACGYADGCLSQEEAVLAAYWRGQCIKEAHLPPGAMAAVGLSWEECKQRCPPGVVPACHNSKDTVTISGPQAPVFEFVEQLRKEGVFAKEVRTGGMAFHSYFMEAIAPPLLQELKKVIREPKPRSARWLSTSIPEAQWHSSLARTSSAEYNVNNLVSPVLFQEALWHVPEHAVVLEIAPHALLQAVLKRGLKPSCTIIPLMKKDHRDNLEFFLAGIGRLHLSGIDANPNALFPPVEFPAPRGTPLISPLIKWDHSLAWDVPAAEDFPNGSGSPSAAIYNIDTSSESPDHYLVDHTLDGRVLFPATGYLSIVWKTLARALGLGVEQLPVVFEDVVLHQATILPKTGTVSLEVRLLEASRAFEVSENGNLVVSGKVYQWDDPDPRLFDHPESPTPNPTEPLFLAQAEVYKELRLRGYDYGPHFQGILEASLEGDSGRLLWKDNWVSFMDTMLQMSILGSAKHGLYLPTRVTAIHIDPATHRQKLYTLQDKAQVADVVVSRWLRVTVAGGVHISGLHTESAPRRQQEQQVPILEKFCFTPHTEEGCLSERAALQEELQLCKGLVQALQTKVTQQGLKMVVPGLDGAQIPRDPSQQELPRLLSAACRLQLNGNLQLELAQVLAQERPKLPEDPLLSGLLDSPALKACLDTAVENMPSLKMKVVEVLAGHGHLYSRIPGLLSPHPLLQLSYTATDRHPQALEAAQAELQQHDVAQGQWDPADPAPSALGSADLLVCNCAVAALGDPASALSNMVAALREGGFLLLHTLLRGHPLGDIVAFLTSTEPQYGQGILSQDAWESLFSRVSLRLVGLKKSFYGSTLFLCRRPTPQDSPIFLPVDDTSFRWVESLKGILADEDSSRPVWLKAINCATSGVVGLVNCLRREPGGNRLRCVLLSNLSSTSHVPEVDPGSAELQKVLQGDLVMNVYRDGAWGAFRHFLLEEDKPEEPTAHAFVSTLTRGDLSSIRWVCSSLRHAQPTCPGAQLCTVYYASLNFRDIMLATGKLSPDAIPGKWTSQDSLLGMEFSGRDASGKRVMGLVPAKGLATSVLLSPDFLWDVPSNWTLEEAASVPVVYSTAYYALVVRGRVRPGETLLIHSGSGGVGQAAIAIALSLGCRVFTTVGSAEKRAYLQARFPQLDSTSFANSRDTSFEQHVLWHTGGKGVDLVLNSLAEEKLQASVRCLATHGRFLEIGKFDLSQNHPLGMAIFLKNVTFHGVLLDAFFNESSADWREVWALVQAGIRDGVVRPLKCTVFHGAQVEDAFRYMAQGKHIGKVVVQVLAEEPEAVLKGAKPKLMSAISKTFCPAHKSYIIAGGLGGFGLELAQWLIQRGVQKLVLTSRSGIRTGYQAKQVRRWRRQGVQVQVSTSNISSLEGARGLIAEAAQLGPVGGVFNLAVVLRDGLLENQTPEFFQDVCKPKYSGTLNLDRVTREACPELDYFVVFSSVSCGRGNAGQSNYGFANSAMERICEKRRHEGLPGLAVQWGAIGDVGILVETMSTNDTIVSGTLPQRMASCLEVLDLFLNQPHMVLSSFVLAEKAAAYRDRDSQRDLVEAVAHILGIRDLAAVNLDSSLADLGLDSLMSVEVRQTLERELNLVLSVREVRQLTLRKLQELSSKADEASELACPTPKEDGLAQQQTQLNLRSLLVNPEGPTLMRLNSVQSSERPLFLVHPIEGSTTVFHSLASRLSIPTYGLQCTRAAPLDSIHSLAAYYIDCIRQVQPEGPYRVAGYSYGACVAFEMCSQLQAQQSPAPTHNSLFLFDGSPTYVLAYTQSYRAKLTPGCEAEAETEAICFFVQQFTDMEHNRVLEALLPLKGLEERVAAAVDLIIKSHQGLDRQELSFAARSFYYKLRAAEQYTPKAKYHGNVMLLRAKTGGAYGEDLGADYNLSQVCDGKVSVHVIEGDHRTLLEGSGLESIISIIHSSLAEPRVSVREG

[2] = target: T1, Fatty acid synthase; test: FAS thioesterase domain inhibitors, dose response, biochemical, kinetic fluorescence intensity (AID 624326); type: functional;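 note: rate of fluorescence rise from hydrolysis of a fluorogenic O-methyl fluorescein ester substrate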
[3] = target: Multidrug resistance protein CDR1 (Candida albicans, UniProt P43071); test: CaCDR1 efflux pump inhibitors in yeast, dose response, S. cerevisiae AD1-8u, singleplex, Cherry Pick1 hits (AID 588606); type: functional
[4] = target: Prothrombin (Bos taurus, UniProt P00735); test: thrombin inhibition, dose response, biochemical, fluorescence polarization, uHTS hits (AID 602369); type: functional
[5] = target: T2, Aminopeptidase N (Plasmodium falciparum FcB1/Columbia, UniProt O96935); test: P. falciparum M1AAP inhibitors, biochemical, fluorogenic H-Leu-NHMec substrate, 1536-well (AID 1445); set-up: species or system Plasmodium falciparum 3D7, 3D7
T2 sequence (O96935 whole entry): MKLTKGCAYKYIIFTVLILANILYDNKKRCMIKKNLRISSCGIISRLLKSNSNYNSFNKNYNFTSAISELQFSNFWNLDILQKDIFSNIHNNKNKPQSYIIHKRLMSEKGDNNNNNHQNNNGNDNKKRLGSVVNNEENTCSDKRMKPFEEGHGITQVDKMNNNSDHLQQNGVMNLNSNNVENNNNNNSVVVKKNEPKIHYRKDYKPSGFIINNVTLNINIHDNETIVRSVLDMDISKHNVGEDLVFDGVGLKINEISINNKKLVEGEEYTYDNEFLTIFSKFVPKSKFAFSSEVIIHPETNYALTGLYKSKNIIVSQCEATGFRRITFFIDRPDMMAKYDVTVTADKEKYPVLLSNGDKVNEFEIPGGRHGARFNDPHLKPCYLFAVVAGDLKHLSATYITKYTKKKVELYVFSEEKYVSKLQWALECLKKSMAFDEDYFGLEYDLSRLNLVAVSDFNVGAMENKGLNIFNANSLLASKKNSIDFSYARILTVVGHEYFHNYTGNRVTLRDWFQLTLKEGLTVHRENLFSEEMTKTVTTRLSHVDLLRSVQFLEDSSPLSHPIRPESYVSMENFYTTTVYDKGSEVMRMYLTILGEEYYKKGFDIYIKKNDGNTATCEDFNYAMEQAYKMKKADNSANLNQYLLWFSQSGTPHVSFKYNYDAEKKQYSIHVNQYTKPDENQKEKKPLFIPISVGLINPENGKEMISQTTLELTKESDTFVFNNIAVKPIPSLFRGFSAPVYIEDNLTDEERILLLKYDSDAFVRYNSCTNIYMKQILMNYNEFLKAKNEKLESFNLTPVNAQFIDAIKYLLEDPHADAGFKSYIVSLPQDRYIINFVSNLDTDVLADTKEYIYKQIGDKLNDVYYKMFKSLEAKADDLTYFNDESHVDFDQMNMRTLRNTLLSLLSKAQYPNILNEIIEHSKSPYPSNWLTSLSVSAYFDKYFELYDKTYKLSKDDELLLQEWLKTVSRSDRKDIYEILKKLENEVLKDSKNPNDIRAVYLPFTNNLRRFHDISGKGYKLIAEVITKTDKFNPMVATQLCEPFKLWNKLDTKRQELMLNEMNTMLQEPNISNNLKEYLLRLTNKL

[6] = target: Cytochrome P450 2D6 (Homo sapiens, UniProt P10635);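 note: CYP2D6 member of a cytochrome P450 panel assay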
Sequence of Cytochrome P450 2D6 (P10635 whole entry): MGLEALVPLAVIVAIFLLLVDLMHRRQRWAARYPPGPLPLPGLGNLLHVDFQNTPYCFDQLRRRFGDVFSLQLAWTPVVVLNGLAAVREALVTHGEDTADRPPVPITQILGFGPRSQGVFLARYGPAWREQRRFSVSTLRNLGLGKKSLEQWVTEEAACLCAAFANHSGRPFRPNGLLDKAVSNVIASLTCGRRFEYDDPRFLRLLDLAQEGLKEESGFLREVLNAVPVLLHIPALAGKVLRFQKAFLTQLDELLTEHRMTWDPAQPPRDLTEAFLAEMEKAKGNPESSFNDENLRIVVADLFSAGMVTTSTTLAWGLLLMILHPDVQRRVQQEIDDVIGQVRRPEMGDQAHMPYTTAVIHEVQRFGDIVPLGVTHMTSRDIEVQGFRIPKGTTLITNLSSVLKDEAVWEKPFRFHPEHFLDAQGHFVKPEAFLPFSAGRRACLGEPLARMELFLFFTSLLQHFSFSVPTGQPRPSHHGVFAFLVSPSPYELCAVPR

[7] = target: 72 kDa type IV collagenase (Homo sapiens, UniProt P08253); test: Dose Response validation of uHTS RPN11 inhibitor hits using a MMP-2 Fluorescence assay.; type: functional
[8] = target: 26S proteasome non-ATPase regulatory subunit 14 (Homo sapiens, UniProt O00487); test: inhibition of proteasome subunit RPN11 – biochemical, fluorescence polarization, uHTS hits, confirmation (AID 602368); type: functional
Sequence of 26S proteasome non-ATPase regulatory subunit 14 (O00487 whole entry): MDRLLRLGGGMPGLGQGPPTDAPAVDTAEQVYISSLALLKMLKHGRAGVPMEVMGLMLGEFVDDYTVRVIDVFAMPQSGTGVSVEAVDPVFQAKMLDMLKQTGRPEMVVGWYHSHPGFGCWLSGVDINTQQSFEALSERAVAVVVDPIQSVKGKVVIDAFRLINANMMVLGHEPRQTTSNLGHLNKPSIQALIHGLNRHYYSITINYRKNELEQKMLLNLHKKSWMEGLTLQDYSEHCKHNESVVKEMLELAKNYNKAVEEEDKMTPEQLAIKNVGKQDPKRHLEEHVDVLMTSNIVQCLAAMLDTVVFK

[9] = target: Protein-tyrosine kinase 6 (Homo sapiens, UniProt Q13882); type: functional
Sequence of Protein-tyrosine kinase 6 (Q13882 whole entry): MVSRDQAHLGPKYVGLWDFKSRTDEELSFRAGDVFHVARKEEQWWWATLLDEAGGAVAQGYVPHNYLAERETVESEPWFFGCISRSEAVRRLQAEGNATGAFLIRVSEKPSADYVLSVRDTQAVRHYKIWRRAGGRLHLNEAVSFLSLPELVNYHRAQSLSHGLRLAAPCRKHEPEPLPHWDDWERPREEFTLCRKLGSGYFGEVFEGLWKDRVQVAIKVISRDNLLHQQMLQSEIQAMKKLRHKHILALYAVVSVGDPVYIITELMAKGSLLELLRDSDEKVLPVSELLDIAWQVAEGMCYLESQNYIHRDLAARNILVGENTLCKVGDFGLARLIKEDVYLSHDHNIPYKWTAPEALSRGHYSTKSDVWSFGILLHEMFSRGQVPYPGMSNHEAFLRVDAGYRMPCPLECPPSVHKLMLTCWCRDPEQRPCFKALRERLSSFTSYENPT

[10] = target: Tyrosine-protein kinase receptor UFO (Homo sapiens, UniProt P30530); type: functional
[11] = target: Protein kinase C zeta type (Homo sapiens, UniProt Q05513); type: functional;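 note: measured as one member of a broad kinase profiling panel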
Sequence of Protein kinase C zeta type (Q05513 whole entry): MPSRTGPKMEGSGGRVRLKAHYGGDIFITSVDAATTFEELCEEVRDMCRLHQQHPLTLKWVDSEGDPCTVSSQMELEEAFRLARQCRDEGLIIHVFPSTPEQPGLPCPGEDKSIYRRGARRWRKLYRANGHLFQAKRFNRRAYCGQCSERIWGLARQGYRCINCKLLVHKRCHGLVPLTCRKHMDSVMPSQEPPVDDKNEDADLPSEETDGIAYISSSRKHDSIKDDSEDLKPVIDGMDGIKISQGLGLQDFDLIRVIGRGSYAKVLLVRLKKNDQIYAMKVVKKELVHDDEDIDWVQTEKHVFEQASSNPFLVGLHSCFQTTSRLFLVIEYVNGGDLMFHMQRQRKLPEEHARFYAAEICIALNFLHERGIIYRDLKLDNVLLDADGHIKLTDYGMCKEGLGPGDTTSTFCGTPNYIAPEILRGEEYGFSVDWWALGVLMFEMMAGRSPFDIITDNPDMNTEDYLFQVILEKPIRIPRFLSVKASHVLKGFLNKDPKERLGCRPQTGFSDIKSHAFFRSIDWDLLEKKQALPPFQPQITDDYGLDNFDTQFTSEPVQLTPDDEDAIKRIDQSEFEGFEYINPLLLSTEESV

[12] = target: Cyclin-dependent kinase 1 (Homo sapiens, UniProt P06493); type: functional;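 note: Kinome-wide panel profiling, with the target listed as panel member CDC2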
[13] = target: Testis-specific serine/threonine-protein kinase 2 (Homo sapiens, UniProt Q96PF2); type: functional;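 note: part of the Navigating the Kinome panel, target entry STK22B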
[14] = target: Dual specificity tyrosine-phosphorylation-regulated kinase 4 (Homo sapiens, UniProt Q9NR20); type: functional
[15] = target: Tyrosine-protein kinase Fyn (Homo sapiens, UniProt P06241); type: functional
[16] = target: Dual specificity tyrosine-phosphorylation-regulated kinase 3 (Homo sapiens, UniProt O43781); type: functional;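 note: measured as one member of a broad kinase panel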
Sequence of Dual specificity tyrosine-phosphorylation-regulated kinase 3 (O43781 whole entry): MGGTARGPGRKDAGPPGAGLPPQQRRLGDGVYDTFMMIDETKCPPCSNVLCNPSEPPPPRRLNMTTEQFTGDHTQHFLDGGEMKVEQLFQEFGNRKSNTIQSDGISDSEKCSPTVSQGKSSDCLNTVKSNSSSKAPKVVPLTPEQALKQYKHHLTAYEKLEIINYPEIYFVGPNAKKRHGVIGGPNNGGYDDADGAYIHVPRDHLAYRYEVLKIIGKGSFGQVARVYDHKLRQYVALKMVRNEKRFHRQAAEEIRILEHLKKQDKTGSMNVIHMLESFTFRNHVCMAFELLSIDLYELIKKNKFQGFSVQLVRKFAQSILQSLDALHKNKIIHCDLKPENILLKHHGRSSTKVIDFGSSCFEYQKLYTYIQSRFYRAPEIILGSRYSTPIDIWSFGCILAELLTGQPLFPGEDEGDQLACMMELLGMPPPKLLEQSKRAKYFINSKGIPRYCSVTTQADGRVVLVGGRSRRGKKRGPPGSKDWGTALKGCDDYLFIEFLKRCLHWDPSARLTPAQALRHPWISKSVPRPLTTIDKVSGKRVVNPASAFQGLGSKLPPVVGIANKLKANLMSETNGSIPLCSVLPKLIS

[17] = target: Protein kinase C gamma type (Homo sapiens, UniProt P05129); type: functional
[18] = target: Lymphokine-activated killer T-cell-originated protein kinase (Homo sapiens, UniProt Q96KB5); type: functional;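 note: value comes from a kinase panel screen in which TOPK was one of the panel members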
[19] = target: G protein-coupled receptor kinase 5 (Homo sapiens, UniProt P34947); test: Navigating the Kinome. Panel member name: GPRK5; type: functional
[20] = target: MAP kinase-activated protein kinase 3 (Homo sapiens, UniProt Q16644); type: functional;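 note: value comes from a kinome-wide profiling panel in which MAPKAPK3 is one of the panel members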
[21] = target: Proto-oncogene tyrosine-protein kinase Src (Homo sapiens, UniProt P12931); type: functional;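 note: SRC entry within a kinome-wide kinase profiling panel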
[22] = target: Eukaryotic elongation factor 2 kinase (Homo sapiens, UniProt O00418); type: functional
[23] = target: Cell division cycle 7-related protein kinase (Homo sapiens, UniProt O00311); type: functional;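 note: value obtained from a kinome-wide kinase panel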

Structure (SMILES): COc1ccc(NC(=O)Nc2cccc3c2O[C@H](CN(C)C(=O)NC2CCCCC2)[C@@H](C)CN([C@H](C)CO)C3=O)cc1
- IC50 [1]: 3.56 µM (active)
- IC50 [2]: 3.35 µM (active)
- EC50 [3]: 8.86 µM (active)

- IC50 [4]: 47.8 µM (active)
- IC50 [5]: 24.1 µM (active)
- AC50 [6]: inconclusive
- IC50 [7]: > 100 µM (inactive)
- IC50 [8]: 37.2 µM (active)
Structure (SMILES): N#Cc1c(O)nc(SCC(=O)c2cccs2)nc1-c1cccs1

Structure (SMILES): COc1cc2c(Oc3ccc4[nH]c(C)cc4c3F)ncnc2cc1OCCCN1CCCC1 [CEDIRANIB]
- Ki [9]: 0.0398 µM (active)
- Ki [10]: 0.316 µM (active)
- Ki [11]: > 7.94 µM (inactive)
- Ki [12]: > 7.94 µM (inactive)
- Ki [13]: > 1.58 µM (inactive)
- Ki [14]: > 7.94 µM (inactive)
- Ki [15]: 0.501 µM (active)
- Ki [16]: > 6.31 µM (inactive)
- Ki [17]: > 7.94 µM (inactive)
- Ki [18]: > 10 µM (inactive)
- Ki [19]: > 3.98 µM (inactive)
- Ki [20]: > 10 µM (inactive)
- Ki [21]: 0.0501 µM (active)
- Ki [22]: > 3.98 µM (inactive)
- Ki [23]: > 1.26 µM (inactive)
